ChEMBL document CHEMBL5223082, “Alkyl-Aryl-Vancomycins: Multimodal Glycopeptides with Weak Dependence on the Bacterial Metabolic State” (J Med Chem, 2021)
Values after ≈ are worked out from the molar mass of the structure shown. Active and inactive are the calls of the source. The rule behind the calls is not given here.

What was measured:
Enterococcus [1] = assay: Potency index, ratio of Vancomycin MIC to test compound MIC for antibacterial activity against Vancomycin-resistant Enterococci NR30903; assay type: functional, NR 30903
Staphylococcus aureus [2] = assay: Antibacterial activity against Vancomycin-resistant Staphylococcus aureus 1 assessed as inhibition of bacterial growth incubated for 18 to 24 hrs by CLSI microbroth dilution method; assay type: functional; settings: time 18-24 hrs
Enterococcus [3] = assay: Potency index, ratio of Vancomycin MIC to test compound MIC for antibacterial activity against Vancomycin-resistant Enterococci NR30909; assay type: functional, NR 30909
Staphylococcus aureus [4] = assay: Potency index, ratio of Vancomycin MIC to test compound MIC for antibacterial activity against Vancomycin-resistant Staphylococcus aureus 12; assay type: functional
Enterococcus [5] = assay: Antibacterial activity against Vancomycin-resistant Enterococci ATCC 51575 assessed as inhibition of bacterial growth incubated for 18 to 24 hrs by CLSI microbroth dilution method; assay type: functional; settings: time 18-24 hrs
Staphylococcus aureus [6] = assay: Potency index, ratio of Vancomycin MIC to test compound MIC for antibacterial activity against Vancomycin-resistant Staphylococcus aureus 4; assay type: functional
Staphylococcus aureus [7] = assay: Potency index, ratio of Vancomycin MIC to test compound MIC for antibacterial activity against Vancomycin-resistant Staphylococcus aureus 1; assay type: functional
[8] = Induction of hemolysis in human erythrocytes incubated for 1 hr by microtiter plater reader analysis; assay type: toxicity, cell-based, Erythrocyte
Enterococcus [9] = assay: Antibacterial activity against Vancomycin-resistant Enterococci NR30903 assessed as inhibition of bacterial growth incubated for 18 to 24 hrs by CLSI microbroth dilution method; assay type: functional; settings: time 18-24 hrs
[10] = Induction of hemolysis in human erythrocytes at 250 uM incubated for 1 hr by microtiter plater reader analysis; assay type: toxicity, cell-based, Erythrocyte; settings: read-out: Activity
Staphylococcus aureus [11] = assay: Antibacterial activity against Vancomycin-resistant Staphylococcus aureus 4 assessed as inhibition of bacterial growth incubated for 18 to 24 hrs by CLSI microbroth dilution method; assay type: functional; settings: time 18-24 hrs
Enterococcus [12] = assay: Antibacterial activity against Vancomycin-resistant Enterococci NR30909 assessed as inhibition of bacterial growth incubated for 18 to 24 hrs by CLSI microbroth dilution method; assay type: functional; settings: time 18-24 hrs
Enterococcus [13] = assay: Potency index, ratio of Vancomycin MIC to test compound MIC for antibacterial activity against Vancomycin-resistant Enterococci ATCC 51559; assay type: functional
Staphylococcus aureus [14] = assay: Antibacterial activity against Methicillin-resistant Staphylococcus aureus ATCC 33591 assessed as inhibition of bacterial growth incubated for 18 to 24 hrs by CLSI microbroth dilution method; assay type: functional; settings: time 18-24 hrs
Enterococcus [15] = assay: Antibacterial activity against Vancomycin-resistant Enterococci ATCC 51559 assessed as inhibition of bacterial growth incubated for 18 to 24 hrs by CLSI microbroth dilution method; assay type: functional; settings: time 18-24 hrs
Staphylococcus aureus [16] = assay: Antibacterial activity against Vancomycin-resistant Staphylococcus aureus 12 assessed as inhibition of bacterial growth incubated for 18 to 24 hrs by CLSI microbroth dilution method; assay type: functional; settings: time 18-24 hrs
Staphylococcus aureus [17] = assay: Potency index, ratio of Vancomycin MIC to test compound MIC for antibacterial activity against Methicillin-resistant Staphylococcus aureus ATCC 33591; assay type: functional
Enterococcus [18] = assay: Potency index, ratio of Vancomycin MIC to test compound MIC for antibacterial activity against Vancomycin-resistant Enterococci ATCC 51575; assay type: functional
Staphylococcus aureus [19] = assay: Antibiofilm activity against Methicillin-resistant Staphylococcus aureus ATCC 33591 assessed as log reduction in bacterial viability within the biofilms at 20 uM incubated for 24 hrs in broth solution followed by culturing on agar plate for 24 hrs by spot plating method; assay type: functional; settings: time 48 hrs
Staphylococcus aureus [20] = assay: Antibacterial activity against Methicillin-resistant Staphylococcus aureus ATCC 33591 assessed as inhibition of bacterial growth preincubated compound with N,N'-diacetyl-L-Lys-D-Ala-D-Ala for 10 mins followed by incubation with bacterial culture for 18 to 24 hrs by CLSI microbroth dilution method; assay type: functional; settings: time 1090-1450 min
Cell membrane [21] = assay: Induction of cytoplasmic membrane depolarization in Vancomycin-resistant Enterococci assessed as increase in fluorescence intensity at 10 uM measured for 35 to 40 mins by DiSC3(5) dye based fluorescence analysis; assay type: subcellular; settings: Enterococcus, time 35-40 min
Staphylococcus aureus [22] = assay: Bactericidal activity against methicillin-resistant Staphylococcus aureus ATCC 33591 assessed as reduction in bacterial colonies at MIC to 8XMIC incubated for 6 hrs in broth solution followed by culturing for 24 hrs on agar plate by spot plating method; assay type: functional, organism-based; settings: time 30.0 hrs
Bacillus subtilis [23] = assay: Inhibition of cell wall biosynthesis in Bacillus subtilis 168 assessed as bubble-like formation on bacterial cell surface at PEC incubated for 15 mins by light microscopic analysis; assay type: functional, organism-based
Staphylococcus aureus [24] = assay: Ratio of MIC for antibacterial activity against Methicillin-resistant Staphylococcus aureus ATCC 33591 measured after 27 passages to MIC for antibacterial activity against Methicillin-resistant Staphylococcus aureus ATCC 33591 measured after 18 to 24 hrs incubation; assay type: functional
Bacillus subtilis [25] = assay: Antibacterial activity against Bacillus subtilis 168 assessed as concentration that requires for bacterial growth retardation measured for every 30 mins; assay type: functional
[26] = target: T1, Septum site-determining protein MinD (Bacillus subtilis (strain 168)) (UniProt Q01464); assay: Delocalization of GFP tagged-MinD in Bacillus subtilis 168 at PEC incubated for 15 mins by fluorescence microscopy
T1 sequence (whole entry): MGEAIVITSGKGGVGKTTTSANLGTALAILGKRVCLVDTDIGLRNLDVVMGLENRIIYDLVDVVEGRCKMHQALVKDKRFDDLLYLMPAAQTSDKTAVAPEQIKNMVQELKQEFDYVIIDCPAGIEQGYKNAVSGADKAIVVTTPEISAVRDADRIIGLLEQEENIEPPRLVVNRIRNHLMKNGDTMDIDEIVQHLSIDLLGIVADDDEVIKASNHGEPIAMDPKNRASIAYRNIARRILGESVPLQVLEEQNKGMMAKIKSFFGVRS

Staphylococcus aureus [27] = assay: Antibacterial activity against Methicillin-resistant Staphylococcus aureus ATCC 33591 persister cells assessed as reduction in bacterial colonies at 40 uM incubated for 24 hrs in broth solution followed by incubation on agar plate for 48 hrs by spot plating method; assay type: functional, organism-based; settings: time 72.0 hrs
Cell membrane [28] = assay: Induction of cytoplasmic membrane depolarization in Bacillus subtilis assessed as increase in fluorescence intensity at 10 uM measured for 35 to 40 mins by DiSC3(5) dye based fluorescence analysis; assay type: subcellular; settings: time 35-40 min
Cell membrane [29] = assay: Induction of cytoplasmic membrane depolarization in Methicillin-resistant Staphylococcus aureus ATCC 33591 assessed as increase in fluorescence intensity at 10 uM measured for 35 to 40 mins by DiSC3(5) dye based fluorescence analysis; assay type: subcellular; settings: time 35-40 min
Staphylococcus aureus [30] = assay: Antibiofilm activity against Methicillin-resistant Staphylococcus aureus ATCC 33591 assessed as bacterial biofilm thickness at 20 uM incubated for 24 hrs by confocal laser scanning microscopy (reference value: 8 micrometer); assay type: functional
Staphylococcus aureus [31] = assay: Antibacterial activity against Methicillin-resistant Staphylococcus aureus ATCC 33591 assessed as inhibition of bacterial growth preincubated compound with teichoic-acid for 1 hr followed by incubation with bacterial culture for 18 to 24 hrs by CLSI microbroth dilution method; assay type: functional; settings: time 19-25 hrs
Staphylococcus aureus [32] = assay: Antibacterial activity against Methicillin-resistant Staphylococcus aureus ATCC 33591 assessed as time duration of post-antibiotic effect for suppression of bacterial growth at 10XMIC incubated for 1 hr in broth solution followed by washing for drug removal and subsequent plating on nutrient agar plate; assay type: functional
Staphylococcus aureus [33] = assay: Ratio of MIC for antibacterial activity against Methicillin-resistant Staphylococcus aureus ATCC 33591 in presence of N,N'-diacetyl-L-Lys-D-Ala-D-Ala to MIC for antibacterial activity against Methicillin-resistant Staphylococcus aureus ATCC 33591; assay type: functional
Staphylococcus aureus [34] = assay: Antibacterial activity against Methicillin-resistant Staphylococcus aureus ATCC 33591 assessed as log reduction in bacterial colonies at 10XMIC incubated for 1 hr in broth solution followed by plating on nutrient agar plate; assay type: functional

CCCCCCNC(=O)C[N+](C)(C)CCCNC(=O)c1ccc(CN[C@@]2(C)C[C@H](O[C@H]3[C@H](Oc4c5cc6cc4Oc4ccc(cc4Cl)[C@@H](O)[C@@H](NC(=O)[C@@H](CC(C)C)NC)C(=O)N[C@@H](CC(N)=O)C(=O)N[C@H]6C(=O)N[C@H]4C(=O)N[C@H](C(=O)N[C@H](C(=O)O)c6cc(O)cc(O)c6-c6cc4ccc6O)[C@H](O)c4ccc(c(Cl)c4)O5)O[C@H](CO)[C@@H](O)[C@@H]3O)O[C@@H](C)[C@H]2O)cc1
Ratio (Enterococcus [1]): 10 | MIC (Staphylococcus aureus [2]): 14.9 µM | Ratio (Enterococcus [3]): 10 | Ratio (Staphylococcus aureus [4]): 10 | MIC (Enterococcus [5]): > 30 µM | Ratio (Staphylococcus aureus [6]): 10 | Ratio (Staphylococcus aureus [7]): 10 | HC50 at 1 h [8]: > 250 µM | MIC (Enterococcus [9]): 7.4 µM | hemolysis at 1 h, 250 µM [10]: 1% | MIC (Staphylococcus aureus [11]): 29.8 µM | MIC (Enterococcus [12]): 14.9 µM | Ratio (Enterococcus [13]): 10 | MIC (Staphylococcus aureus [14]): 0.4 µM | MIC (Enterococcus [15]): > 30 µM | MIC (Staphylococcus aureus [16]): 7.4 µM | Ratio (Staphylococcus aureus [17]): 2 | Ratio (Enterococcus [18]): 10

CN[C@H](CC(C)C)C(=O)N[C@H]1C(=O)N[C@@H](CC(N)=O)C(=O)N[C@H]2C(=O)N[C@H]3C(=O)N[C@H](C(=O)N[C@H](C(=O)O)c4cc(O)cc(O)c4-c4cc3ccc4O)[C@H](O)c3ccc(c(Cl)c3)Oc3cc2cc(c3O[C@@H]2O[C@H](CO)[C@@H](O)[C@H](O)[C@H]2O[C@H]2C[C@](C)(N)[C@H](O)[C@H](C)O2)Oc2ccc(cc2Cl)[C@H]1O [VANCOMYCIN]
MIC (Staphylococcus aureus [2]): 346 µM (≈ 501 µg/mL) | Activity (Staphylococcus aureus [19]): 0.9 log10CFU/ml | MIC (Enterococcus [5]): 346 µM (≈ 501 µg/mL) | MIC (Staphylococcus aureus [20]): > 30 µM | Activity (Cell membrane [21]): inactive | MIC (Enterococcus [9]): 692 µM (≈ 1000 µg/mL) | Activity (Staphylococcus aureus [22]): Active | inhibition (Bacillus subtilis [23]): Active | Ratio (Staphylococcus aureus [24]): 2 | EC (Bacillus subtilis [25]): 0.4 µM | Activity [26]: inactive | Activity (Staphylococcus aureus [27]): inactive | MIC (Staphylococcus aureus [11]): 346 µM (≈ 501 µg/mL) | MIC (Enterococcus [12]): 346 µM (≈ 501 µg/mL) | Activity (Cell membrane [28]): inactive | Activity (Cell membrane [29]): inactive | Activity (Staphylococcus aureus [30]): 7 um | MIC (Staphylococcus aureus [31]): 0.6 µM (≈ 0.87 µg/mL) | Time (Staphylococcus aureus [32]): 6 h | Ratio (Staphylococcus aureus [33]): >40 | MIC (Staphylococcus aureus [14]): 0.6 µM (≈ 0.87 µg/mL) | Activity (Staphylococcus aureus [34]): 0.5 log10CFU/ml | MIC (Enterococcus [15]): 1380 µM (≈ 2010 µg/mL) | MIC (Staphylococcus aureus [16]): 346 µM (≈ 501 µg/mL)
